In the supplement of paper PMC5908809:

Key:
[1] = test system: normal NK cells expanded with K562-aAPC; assay: percent inhibition of viability; higher = more inhibition; settings: 72 h, IL-2 2.5 ng/mL
Procedure: (§1)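 Drug sensitivity and resistance testing on K562-aAPC-expanded normal NK cells: 5 concentrations (10-fold steps over a 10,000-fold range), 72 h at 37 °C, viability by CellTiter-Glo normalised to DMSO and benzethonium chloride controls; DSS from the fitted curve.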

[2] = test system: DERL-7 (IL-2 2.5 ng/mL); assay: as above; settings: 72 h
[3] = test system: YT (IL-2 2.5 ng/mL); assay: as above; settings: 72 h
[4] = test system: IMC-1 (IL-2 20 ng/mL); assay: as above; settings: 72 h
[5] = test system: NKL (IL-2 2.5 ng/mL); assay: as above; settings: 72 h
[6] = test system: KAI3 (IL-2 2.5 ng/mL); assay: as above; settings: 72 h
[7] = test system: normal primary NK cells, pool 1 (3 donors), resting (IL-2 0 ng/mL); assay: as above; settings: 72 h
[8] = test system: normal primary NK cells, pool 1 (3 donors) (IL-2 2.5 ng/mL); assay: as above; settings: 72 h
[9] = test system: normal primary NK cells, pool 3 (3 donors) (IL-2 2.5 ng/mL); assay: as above; settings: 72 h
[10] = test system: SNK-6 (IL-2 2.5 ng/mL); assay: as above; settings: 72 h
[11] = test system: KHYG-1 (IL-2 2.5 ng/mL); assay: as above; settings: 72 h
[12] = test system: NK-92 (IL-2 2.5 ng/mL); assay: as above; settings: 72 h
[13] = test system: NK-YS (IL-2 2.5 ng/mL); assay: as above; settings: 72 h
[14] = test system: normal primary NK cells, pool 2 (3 donors) (IL-2 2.5 ng/mL); assay: as above; settings: 72 h
[15] = test system: normal NK cells expanded with K562-aAPC; assay: drug sensitivity score (DSS) (DSS units); higher = more sensitive; extreme values may be limits of the assay; settings: 72 h; IL-2 2.5 ng/mL
Procedure: as §1

[16] = test system: DERL-7 (IL-2 2.5 ng/mL); assay: as above; settings: 72 h
[17] = test system: YT (IL-2 2.5 ng/mL); assay: as above; settings: 72 h
[18] = test system: IMC-1 (IL-2 20 ng/mL); assay: as above; settings: 72 h
[19] = test system: NKL (IL-2 2.5 ng/mL); assay: as above; settings: 72 h
[20] = test system: KAI3 (IL-2 2.5 ng/mL); assay: as above; settings: 72 h
[21] = test system: normal primary NK cells, pool 1 (3 donors), resting (IL-2 0 ng/mL); assay: as above; settings: 72 h
[22] = test system: normal primary NK cells, pool 1 (3 donors) (IL-2 2.5 ng/mL); assay: as above; settings: 72 h
[23] = test system: normal primary NK cells, pool 3 (3 donors) (IL-2 2.5 ng/mL); assay: as above; settings: 72 h
[24] = test system: SNK-6 (IL-2 2.5 ng/mL); assay: as above; settings: 72 h
[25] = test system: KHYG-1 (IL-2 2.5 ng/mL); assay: as above; settings: 72 h
[26] = test system: NK-92 (IL-2 2.5 ng/mL); assay: as above; settings: 72 h
[27] = test system: NK-YS (IL-2 2.5 ng/mL); assay: as above; settings: 72 h
[28] = test system: normal primary NK cells, pool 2 (3 donors) (IL-2 2.5 ng/mL); assay: as above; settings: 72 h

CCc1c2c(nc3ccc(OC(=O)N4CCC(N5CCCCC5)CC4)cc13)-c1cc3c(c(=O)n1C2)COC(=O)[C@]3(O)CC [Irinotecan] (max concentration tested 10000 nM)
percent inhibition of viability [%]
Settings | 1 nM | 10 nM | 100 nM | 1000 nM | 10000 nM
[1] | -0.14 | -0.75 | 0.82 | 45.8 | 61
[2] | -4.74 | 4.74 | 6.64 | 65.6 | 96.7
[3] | -5.37 | -7.93 | 2.4 | 78.1 | 108
[4] | -2.65 | -6.08 | 0 | 95.8 | 99.6
[5] | -2.62 | 5.5 | 62.6 | 105 | 108
[6] | 16.1 | 10.6 | 29.7 | 88.8 | 84.8
[7] | 4.36 | 9.89 | 22.8 | 2.26 | -9.62
[8] | -8.27 | 6.89 | -1.05 | 3.55 | 14.4
[9] | 3.5 | 8.16 | 16.4 | 10.7 | 17.2
[10] | 18.2 | -16.5 | 10.3 | 93.8 | 98.5
[11] | 0.37 | -3.33 | 25.7 | 104 | 109
[12] | 0.95 | -2.29 | 30 | 104 | 109
[13] | -7.5 | -7.35 | 7.27 | 94.2 | 98.5
[14] | 1.46 | 0.89 | 3.4 | 10 | 20.8

Settings | drug sensitivity score
[15] | 8.77
[16] | 13.6
[17] | 14.6
[18] | 17.4
[19] | 25.6
[20] | 19.5
[21] | 0
[22] | 0.5
[23] | 2.6
[24] | 18.7
[25] | 21.9
[26] | 22.4
[27] | 18.3
[28] | 1.23

O=C(O)c1ccc(Nc2ncc3c(n2)-c2ccc(Cl)cc2C(c2c(F)cccc2F)=NC3)cc1 [MLN-8054] (max concentration tested 10000 nM)
percent inhibition of viability [%]
Settings | 1 nM | 10 nM | 100 nM | 1000 nM | 10000 nM
[1] | 0.34 | 1.46 | -1.49 | 39.7 | 57.7
[2] | -1.42 | -2.27 | -2.98 | 42.2 | 63.5
[3] | 4.9 | 5.88 | 21 | 51.3 | 62
[4] | 2.52 | 4.23 | 18.1 | 27.9 | 87.8
[5] | 12.4 | 12.3 | 30.5 | 66.5 | 36.9
[6] | 5.5 | 5.3 | 20.2 | 51.7 | 71.4
[7] | 19.2 | -7.07 | 0.26 | -14.7 | 13.3
[8] | -5.64 | -11.5 | -5.12 | -17.1 | 3.94
[9] | 5.09 | 2.04 | 1 | 3.1 | 12.9
[10] | -1.52 | 0.61 | 53.3 | 78.6 | 81.5
[11] | 4.03 | 6.1 | 20 | 64.1 | 79
[12] | 7.92 | 3.31 | 17.5 | 33.8 | 65.2
[13] | 5.25 | 3.3 | 40.5 | 74 | 86.5
[14] | 1.69 | -1.38 | 2.04 | -0.41 | 21.9

Settings | drug sensitivity score
[15] | 7.83
[16] | 8.47
[17] | 11.9
[18] | 7.96
[19] | 14
[20] | 12.2
[21] | 0.03
[22] | 0
[23] | 0.29
[24] | 21.2
[25] | 14.3
[26] | 8.69
[27] | 19
[28] | 0.7
